Measured values reported in paper PMC6934184, “Selective DNA-PKcs inhibition extends the therapeutic index of localized radiotherapy and chemotherapy” (The Journal of Clinical Investigation, 2019).

Target: T1, CLK2 (Homo sapiens, UniProt P49760)
T1 construct: purchased Thermo Fisher Scientific (Life Technologies) SelectScreen
Assay: SelectScreen Z'LYTE
Assay type: biochemical
Summary of the method: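 SelectScreen broad panel; activity (Z'LYTE, Adapta) plus binding formats. ATP: Km app for CSF1R Z'LYTE; 10 for CAMK1 Adapta. Readout = % per kinase.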

T1 sequence (P49760 whole entry): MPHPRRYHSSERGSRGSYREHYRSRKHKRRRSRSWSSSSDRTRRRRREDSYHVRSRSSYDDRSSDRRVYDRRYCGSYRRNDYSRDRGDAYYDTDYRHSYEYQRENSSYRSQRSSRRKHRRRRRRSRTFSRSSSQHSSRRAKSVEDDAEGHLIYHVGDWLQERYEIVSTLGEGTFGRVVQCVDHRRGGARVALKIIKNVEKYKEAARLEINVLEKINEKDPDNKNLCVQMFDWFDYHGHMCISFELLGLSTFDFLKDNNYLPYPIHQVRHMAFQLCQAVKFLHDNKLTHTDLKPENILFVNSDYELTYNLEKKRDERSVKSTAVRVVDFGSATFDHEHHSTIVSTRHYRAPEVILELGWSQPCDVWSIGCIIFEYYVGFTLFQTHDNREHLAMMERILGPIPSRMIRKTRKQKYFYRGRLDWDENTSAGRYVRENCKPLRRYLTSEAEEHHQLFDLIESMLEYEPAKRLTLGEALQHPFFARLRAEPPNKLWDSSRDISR

## CN(C(=O)CN1CCOCC1)c1ccc2sc3c(-c4cccc5c(=O)cc(N6CC7CCC(C6)O7)oc45)cccc3c2c1 [NU5455]
  inhibition at 1 µM: 4.1%
